System: 4 PI3K isoforms (Human recombinant GST-PI3K)
Experiment: PI3K scintillation proximity assay, best IC50 obtained with the four isoforms (alpha, beta, delta, gamma)
Type: biochemical
Conditions: best IC50 obtained with the four isoforms of PI3K; read-out: Best potency measured on the 4 PI3K isoforms

Row | SMILES | IC50 [µM]
1 | O=C(c1nn(-c2cccc(CN3CCC(F)(F)CC3)c2)c2c1CS(=O)(=O)c1ccccc1-2)N1CCOCC1 [Example 260, 1-{3-[(4,4-Difluoropiperidin-1-yl)methyl]phenyl}-3-(morpholin-4-ylcarbonyl)-1,4-dihydrothiochromeno[4,3-c]pyrazole 5,5-dioxide] | 0.56
2 | O=C(c1nn(-c2cccc(CN3CC(F)(F)C3)c2)c2c1CS(=O)(=O)c1ccccc1-2)N1CCOCC1 [Example 261, 1-{3-[(3,3-Difluoroazetidin-1-yl)methyl]phenyl}-3-(morpholin-4-ylcarbonyl)-1,4-dihydrothiochromeno[4,3-c]pyrazole 5,5-dioxide] | 0.643
3 | COC1CN(Cc2cccc(-n3nc(C(=O)N4CCOCC4)c4c3-c3ccccc3S(=O)(=O)C4)c2)C1 [Example 262, 1-{3-[(3-Methoxyazetidin-1-yl)methyl]phenyl}-3-(morpholin-4-ylcarbonyl)-1,4-dihydrothiochromeno[4,3-c]pyrazole 5,5-dioxide] | 0.277
4 | O=C(c1nn(C2CCOCC2)c2c1CS(=O)(=O)c1c(Cl)cccc1-2)N1CCOCC1 [Example 264, 6-Chloro-3-(morpholin-4-ylcarbonyl)-1-(tetrahydro-2H-pyran-4-yl)-1,4-dihydrothiochromeno[4,3-c]pyrazole 5,5-dioxide] | 0.673
5 | COC1CCN(Cc2cccc(-n3nc(C(=O)N4CCOCC4)c4c3-c3ccccc3S(=O)(=O)C4)c2)C1 (stereo not shown) [Example 266, 1-{3-[(3-Methoxypyrrolidin-1-yl)methyl]phenyl}-3-(morpholin-4-ylcarbonyl)-1,4-dihydrothiochromeno[4,3-c]pyrazole 5,5-dioxide] | 0.35
6 | COC1CCN(Cc2ccc(-n3nc(C(=O)N4CCOCC4)c4c3-c3ccccc3S(=O)(=O)C4)cc2)C1 (stereo not shown) [Example 267, 1-{4-[(3-Methoxypyrrolidin-1-yl)methyl]phenyl}-3-(morpholin-4-ylcarbonyl)-1,4-dihydrothiochromeno[4,3-c]pyrazole 5,5-dioxide] | 0.059
7 | O=C(c1nn(-c2ccc(CN3CCC(F)(F)CC3)cc2)c2c1CS(=O)(=O)c1ccccc1-2)N1CCOCC1 [Example 268, 1-{4-[(4,4-Difluoropiperidin-1-yl)methyl]phenyl}-3-(morpholin-4-ylcarbonyl)-1,4-dihydrothiochromeno[4,3-c]pyrazole 5,5-dioxide] | 0.23
8 | O=C(c1nn(-c2ccc(CN3CC(F)(F)C3)cc2)c2c1CS(=O)(=O)c1ccccc1-2)N1CCOCC1 [Example 271, 1-{4-[(3,3-Difluoroazetidin-1-yl)methyl]phenyl}-3-(morpholin-4-ylcarbonyl)-1,4-dihydrothiochromeno[4,3-c]pyrazole 5,5-dioxide] | 0.395
9 | COC1CN(Cc2ccc(-n3nc(C(=O)N4CCOCC4)c4c3-c3ccccc3S(=O)(=O)C4)cc2)C1 [Example 272, 1-{4-[(3-Methoxyazetidin-1-yl)methyl]phenyl}-3-(morpholin-4-ylcarbonyl)-1,4-dihydrothiochromeno[4,3-c]pyrazole 5,5-dioxide] | 0.165
10 | O=C(c1nn(C2CCN(CCCl)C2)c2c1CS(=O)(=O)c1ccccc1-2)N1CCOCC1 (stereo not shown) [Example 274] | 0.305
11 | COCc1ccc(-n2nc(C(=O)N3CCOCC3)c3c2-c2ccccc2S(=O)(=O)C3)cc1 [Example 278, 1-[4-(Methoxymethyl)phenyl]-3-(morpholin-4-ylcarbonyl)-1,4-dihydrothiochromeno[4,3-c]pyrazole 5,5-dioxide] | 0.667
12 | O=C(c1nn(C2CCCN(CCC3CCOCC3)C2)c2c1CS(=O)(=O)c1c(F)cccc1-2)N1CCOCC1 (stereo not shown) [Example 280, 6-Fluoro-3-(morpholin-4-ylcarbonyl)-1-{1-[2-(tetrahydro-2H-pyran-4-yl)ethyl]piperidin-3-yl)-1,4-dihydrothiochromeno[4,3-c]pyrazole 5,5-dioxide] | 0.022
13 | O=C(c1nn(C2CCN(CCC3CCOCC3)CC2)c2c1CS(=O)(=O)c1ccccc1-2)N1CCOCC1 [Example 285, 3-(morpholin-4-ylcarbonyl)-1-{1-[2-(tetrahydro-2H-pyran-4-yl)ethyl]piperidin-4-yl}-1,4-dihydrothiochromeno[4,3-c]pyrazole 5,5-dioxide] | 0.692
14 | O=C(CC1CCOCC1)N1CCC(n2nc(C(=O)N3CCOCC3)c3c2-c2ccccc2S(=O)(=O)C3)C1 (stereo not shown) [Example 287, 3-(Morpholin-4-ylcarbonyl)-1-[1-(tetrahydro-2H-pyran-4-ylacetyl)pyrrolidin-3-yl]-1,4-dihydrothiochromeno[4,3-c]pyrazole 5,5-dioxide] | 0.733
15 | CC(=O)Nc1nc2c(s1)S(=O)(=O)Cc1c(C(=O)N3CCOCC3)nn(C3CCOCC3)c1-2 [Example 289, N-[3-(Morpholin-4-ylcarbonyl)-5,5-dioxido-1-(tetrahydro-2H-pyran-4-yl)-1,4-dihydropyrazolo[3′,4′:4,5]thiopyrano[3,2-d][1,3]thiazol-7-yl]acetamide] | 0.284
16 | O=C(c1nn(-c2cccc(Cn3ccnc3)c2)c2c1CS(=O)(=O)c1ccccc1-2)N1CCOCC1 [Example 291, 1-[3-(1H-imidazol-1-ylmethyl)phenyl]-3-(morpholin-4-ylcarbonyl)-1,4-dihydrothiochromeno[4,3-c]pyrazole 5,5-dioxide] | 0.673
17 | O=C(c1nn(-c2cccc(Cn3cccn3)c2)c2c1CS(=O)(=O)c1ccccc1-2)N1CCOCC1 [Example 292, 3-(Morpholin-4-ylcarbonyl)-1-[3-(1H-pyrazol-1-ylmethyl)phenyl]-1,4-dihydrothiochromeno[4,3-c]pyrazole 5,5-dioxide] | 0.488

Results, then the molecule that gave them:

Row | IC50 [µM] | SMILES
18 | 0.169 | O=C(c1nn(C2CCCN(CCn3cccn3)C2)c2c1CS(=O)(=O)c1ccccc1-2)N1CCOCC1 (stereo not shown) [Example 263, 3-(Morpholin-4-ylcarbonyl)-1-{1-[2-(1H-pyrazol-1-yl)ethyl]piperidin-3-yl}-1,4-dihydrothiochromeno[4,3-c]pyrazole 5,5-dioxide]
19 | 0.098 | O=C(c1nn(C2CCCN(CC3CCOC3)C2)c2c1CS(=O)(=O)c1ccccc1-2)N1CCOCC1 (stereo not shown) [Example 265, 3-(Morpholin-4-ylcarbonyl)-1-[1-(tetrahydrofuran-3-ylmethyl)piperidin-3-yl]-1,4-dihydrothiochromeno[4,3-c]pyrazole 5,5-dioxide]
20 | 0.28 | O=C(c1nn(C2CCN(CCC3CCOCC3)C2)c2c1CS(=O)(=O)c1ccccc1-2)N1CCOCC1 (stereo not shown) [Example 270, 3-(Morpholin-4-ylcarbonyl)-1-{1-[2-(tetrahydro-2H-pyran-4-yl)ethyl]pyrrolidin-3-yl}-1,4-dihydrothiochromeno[4,3-c]pyrazole 5,5-dioxide]
21 | 0.036 | O=C(c1nn(C2CCCN(CCN3CC(F)(F)C3)C2)c2c1CS(=O)(=O)c1ccccc1-2)N1CCOCC1 (stereo not shown) [Example 273, 1-{1-[2-(3,3-Difluoroazetidin-1-yl)ethyl]piperidin-3-yl}-3-(morpholin-4-ylcarbonyl)-1,4-dihydrothiochromeno[4,3-c]pyrazole 5,5-dioxide]
22 | 0.192 | O=C(c1nn(C2CCN(CCN3CCOCC3)C2)c2c1CS(=O)(=O)c1ccccc1-2)N1CCOCC1 (stereo not shown) [Example 275, 3-(Morpholin-4-ylcarbonyl)-1-[1-(2-morpholin-4-ylethyl)pyrrolidin-3-yl]-1,4-dihydrothiochromeno[4,3-c]pyrazole 5,5-dioxide]
23 | 0.875 | O=C(NC1CCCCC1)N1CCC(n2nc(C(=O)N3CCOCC3)c3c2-c2ccccc2S(=O)(=O)C3)C1 (stereo not shown) [Example 276]
24 | 0.149 | O=C(c1nn(C2CCN(CCN3CCC(F)CC3)C2)c2c1CS(=O)(=O)c1ccccc1-2)N1CCOCC1 (stereo not shown) [Example 277, 1-{1-[2-(4-Fluoropiperidin-1-yl)ethyl]pyrrolidin-3-yl}-3-(morpholin-4-ylcarbonyl)-1,4-dihydrothiochromeno[4,3-c]pyrazole 5,5-dioxide]
25 | 0.711 | O=C(CC1CCCCC1)N1CCC(n2nc(C(=O)N3CCOCC3)c3c2-c2ccccc2S(=O)(=O)C3)C1 (stereo not shown) [Example 279, 1-[1-(Cyclohexylacetyl)pyrrolidin-3-yl]-3-(morpholin-4-ylcarbonyl)-1,4-dihydrothiochromeno[4,3-c]pyrazole 5,5-dioxide]
26 | 0.034 | O=C(c1nn(C2CCCN(CCN3CCC(F)CC3)C2)c2c1CS(=O)(=O)c1ccccc1-2)N1CCOCC1 (stereo not shown) [Example 281, 1-{1-[2-(4-Fluoropiperidin-1-yl)ethyl]piperidin-3-yl}-3-(morpholin-4-ylcarbonyl)-1,4-dihydrothiochromeno[4,3-c]pyrazole 5,5-dioxide]
27 | 0.083 | O=C(c1nn(C2CCCN(CCN3CCCC(F)(F)C3)C2)c2c1CS(=O)(=O)c1ccccc1-2)N1CCOCC1 (stereo not shown) [Example 284, 1-{1-[2-(3,3-Difluoropiperidin-1-yl)ethyl]piperidin-3-yl}-3-(morpholin-4-ylcarbonyl)-1,4-dihydrothiochromeno[4,3-c]pyrazole 5,5-dioxide]
28 | 0.257 | O=C(c1nn(C2CCN(CCn3cccn3)C2)c2c1CS(=O)(=O)c1ccccc1-2)N1CCOCC1 (stereo not shown) [Example 286, 3-(Morpholin-4-ylcarbonyl)-1-{1-[2-(1H-pyrazol-1-yl)ethyl]pyrrolidin-3-yl}-1,4-dihydrothiochromeno[4,3-c]pyrazole 5,5-dioxide]
29 | 0.166 | O=C(c1nn(C2CCN(CCn3ccnc3)C2)c2c1CS(=O)(=O)c1ccccc1-2)N1CCOCC1 (stereo not shown) [Example 288, 1-{1-[2-(1H-Imidazol-1-yl)ethyl]pyrrolidin-3-yl}-3-(morpholin-4-ylcarbonyl)-1,4-dihydrothiochromeno[4,3-c]pyrazole 5,5-dioxide]
30 | 0.369 | O=C(c1nn(C2CCN(CCN3CCOCC3)CC2)c2c1CS(=O)(=O)c1ccccc1-2)N1CCOCC1 [Example 290, 3-(Morpholin-4-ylcarbonyl)-1-[1-(2-morpholin-4-ylethyl)piperidin-4-yl]-1,4-dihydrothiochromeno[4,3-c]pyrazole 5,5-dioxide]
31 | 0.254 | O=C(c1nn(C2CCCN(C3CCOCC3)C2)c2c1CS(=O)(=O)c1ccccc1-2)N1CCOCC1 (stereo not shown) [Example 293, 3-(Morpholin-4-ylcarbonyl)-1-[1-(tetrahydro-2H-pyran-4-yl)piperidin-3-yl]-1,4-dihydrothiochromeno[4,3-c]pyrazole 5,5-dioxide]

— patent US9073940B2, “Tricyclic pyrazol amine derivatives” (MERCK SERONO SA, priority 2009, dated 2015)
